# Data taken from patent publication US10105414B2, “Peptides derived from RS1 which down-regulate glucose absorption after a glucose rich meal and increase insulin sensitivity” (Julius-Maximilians-Universität Würzburg, priority 2014, dated 2018).
# Like-named read-outs stand apart in the source and are kept apart here.
# T1: ODC (Homo sapiens, UniProt P11926)
# T1 sequence (P11926 1-461): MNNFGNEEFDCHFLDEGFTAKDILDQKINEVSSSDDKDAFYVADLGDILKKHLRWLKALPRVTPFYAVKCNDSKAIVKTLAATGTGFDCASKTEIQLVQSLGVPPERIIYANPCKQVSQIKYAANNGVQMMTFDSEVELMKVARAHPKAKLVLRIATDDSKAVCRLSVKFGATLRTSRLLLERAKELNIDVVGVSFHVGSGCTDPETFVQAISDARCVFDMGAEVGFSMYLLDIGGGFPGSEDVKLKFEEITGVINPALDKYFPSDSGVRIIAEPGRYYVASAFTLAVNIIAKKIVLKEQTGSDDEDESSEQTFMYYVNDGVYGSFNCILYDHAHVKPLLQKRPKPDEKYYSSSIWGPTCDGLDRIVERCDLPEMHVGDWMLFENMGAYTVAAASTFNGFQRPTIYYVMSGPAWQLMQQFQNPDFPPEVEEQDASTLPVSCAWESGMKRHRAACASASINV
# Key:
# [1] = molecular target: T1, ODC; assay: Activity of purified ODC (released CO2); type: biochemical; details: 100 μM tripeptide, 80 ng purified ODC, 1 h, 37° C.
# [2] = system: hSGLT1; details: 30 min; for down-regulation of hSGLT1 mediated AMG uptake: 5 mM D-glucose
# Description: Jejunal segments which were routinely dissected during bariatric operations of highly obese patients were stored for 1-3 h on ice in Dulbecco's modified Eagle's medium containing 5 mM D-glucose. The mucosa was isolated and circular areas of the mucosa were dissected using a punching instrument.
# (§1) Standardised t areas of human small intestinal mucosa (FIGS. 13,19) or 1 cm segments of everted mouse small intestine (FIGS. 14,15,20) were washed three times at 37° C. with Krebs-Ringer buffer containing 5 mM D-glucose and incubated for 30 min at 37° C. in Krebs-Ringer buffer containing 5 mM D-glucose plus different concentrations of tripeptides. Thereafter the tissue was washed three times at 0° C. in Krebs-Ringer buffer without glucose and uptake measurements were performed.
# (§2) For measurement of SGLT1 mediated glucose uptake, the everted segments of mouse small intestine or defined areas of human mucosa were incubated for 2 min at 37° C. with Krebs-Ringer buffer containing 10 μM [^14C]AMG with or without 0.2 mM phlorizin. Uptake was stopped by transferring the segments into ice cold Krebs-Ringer buffer containing 0.2 mM phlorizin for 5 min. After washing with ice cold Krebs-Ringer buffer the intestinal segments or pieces of human mucosa were dissolved in 0.5 ml Soluence-350) (Perkin Elmer Inc. Waltham Mass., USA). Radioactivity was analysed by liquid scintillation counting. Phlorizin inhibited AMG uptake per cm length or per standard area of the mucosa was calculated.
# Next, it was investigated which of the QXP-type tripeptides are capable to downregulate hSGLT1 expression in human small intestine in the presence of high glucose. Jejunal samples that were obtained during bariatric surgery of obese patients (males and females with a mean age of 50 years with a mean body mass index of 50) were used. […] A part of the jejumum which is routinely removed during bariatric surgery, was carried to the laboratory using ice-cold culture medium containing 6 mM D-glucose. Part of the mucosa was dissected and identical areas of the mucosa were isolated using a punching instrument. The mucosal pieces were washed with glucose free buffer and incubated for 30 min at 37° C. in tissue culture medium (pH 6.4) containing 5 mM D-glucose and different QXP-type tripeptides. Thereafter the sample were washed two times with PBS buffer (pH 7.4, 37° C.) and incubated for 2 min at 37° C. in PBS (pH 7.4) containing 100 mM sodium and 10 μM [^14C]AMG. The incubation was performed in the absence and presence of 200 μM of the SGLT1 inhibitor phlorizin. Thereafter the samples were washed with ice-cold PBS, the tissue was dissolved, and radioactivity was determined by liquid scintillation counting. The phorizin inhibited AMG uptake was calculated.
# [3] = system: mSGLT1; details: RS1−/− mice starved over night; gavage 20 μmol per mouse; after 2 h
# Description: as §2
# (§3) After 2 h the animals were killed, their small intestines were everted and phlorizin inhibited uptake of 10 μM [^14C]AMG Into segments of the everted jejunum was measured (FIG. 12A).
# [4] = system: mSGLT1
# Description: as §1, §2
# Thereafter the segments were washed with PBS buffer and phlorizin inhibited uptake of 10 μM [^14C]AMG was measured.
# [5] = RS1−/− mice; gavage 20 μmol QEP before 40% D-glucose gavage
# Description: Blood (2 μL) was collected from the tail vein and analysed using the amperometric glucose oxidase method (glucose meter, ACCU-CHEK Aviva). Blood insulin-Insulin was determined using the rat C-peptide ELISA from Mercodia (Uppsala, Sweden) which is based on the sandwich technique using two monoclonal antibodies directed against two different antigenic determinants on the C-peptide.
# as §3
# [6] = system: hCNT3; assay: hCNT3-mediated uridine uptake in Xenopus laevis oocytes after injection of peptides; type: cell-based, human; details: low intracellular glucose, no AMG injected
# Description: FIG. 9. […] Posttransciptional downregulation of hCNT1 and hCNT3 was measured without injection of AMG. […] One hour later uptake of 5 μM [^3H]uridine was measured.
# (§4) Before uptake measurements were started, 50 nl of K-Ori buffer containing peptides, polypeptides, 1 pM of calmodulin stimulated kinase 2 (CK2) inhibitor KN93 (Calbiochem San Diego. Calif.), 3 mM of the omithinedecarboxlase inhibitor difluoromethylornithine DFMO and/or or 100 pmol α-methyl-α-D-glucopyranoside (AMG) were injected and the oocytes were incubated for 1 h at room temperature. Uptake was measured in Ori buffer at room temperature. Measurements in transporter expressing oocytes were corrected for measurements in noninjected oocytes. Uptake of 50 μM [^14C]AMG was measured after 15 min incubation and washing in ice-cold Ori buffer containing 1 mM phlorizin. Uptake of 5 μM [^3H]uridine was measured after 15 min incubation and washing in ice-cold Ori buffer. Oocytes were solubilized in 5% (w/v) SDS and analyzed for radioactivity by scintillation counting.
# [7] = system: hSGLT1; assay: hSGLT1-mediated AMG uptake in Xenopus laevis oocytes 1 h after injection of peptides; type: cell-based, human; details: for down-regulation of hSGLT1 when putrescine was added: intracellular concentration 1 μM
# Description: (§5) Selected oocytes were injected with 50 nl of water containing cRNAs (2.5 ng of hSGLT1 or 0.5 ng of hCNT1). For expression oocytes were incubated for 2-3 days at 16° C. in modified Barth's solution with gentamycin. Noninjected control oocytes were incubated in parallel.
# as §4
# (§6) For comparison of mean values from 2 groups the Student's t-test for unpaired samples was employed.
# [8] = system: hCNT1; assay: hCNT1-mediated uridine uptake in Xenopus laevis oocytes after injection of peptides; type: cell-based, human; details: for uptake of 5 μM [3H]uridine expressed by hCNT1: low intracellular glucose, no AMG injected
# Description: as §5, §4, §6
# [9] = molecular target: T1, ODC; assay: ODC activity (released CO2) in HEK293 cells transfected with ODC; type: cell-based; design: expressed in transfected cells; host or cells: HEK293
# Description: FIG. 23. […] Expressed uptake of 25 μM [^14C]AMG was measured 1 h later as FIG. 2. In A-C mean value±SE of 24-30 oocytes from three independent experiments are presented. D) HEK293 cells were transiently transfected with ODC, ODC plus hRS1-Reg or with ODC plus control vector. […] In D and E mean values±SE from 3-5 independent experiments are indicated. ***P<0.001 for difference to controls measured by ANOVA with posthoc Tukey comparison.
# (§7) Employing two-hybrid screening and immunocoprecipitation experiments evidence was provided that hRS1-Reg binds to ODC (data not shown). It was shown that the release of SGLT1 containing vesicles from the Golgi apparatus was blocked by specific ODC Inhibitor difluoromethylornithine (DFMO) and that the DFMO effect was blunted when putrescine was added (FIG. 23A). Since hRS1-Reg and DFMO down-regulate hSGLT1 to a similar degree and the down-regulations were not additive, RS1-Reg and ODC employ the same pathway for down-regulation of hSGLT1.
# [10] = molecular target: T1, ODC; assay: Two-hybrid screening and immunocoprecipitation; type: binding; details: data not shown
# Description: as §7
# [11] = without injection of AMG (intracellular AMG <10 μM)
molecule,measurement,setting,value
glutamine-glutamic acid-proline [QEP],inhibition of ODC activity,[1],about 40%
same,down-regulation of hSGLT1 mediated AMG uptake,[2]; 0.1 mM,not statistically significant
same,down-regulation of hSGLT1 mediated AMG uptake,[2]; 0.5 mM,not statistically significant
same,down-regulation of hSGLT1 mediated AMG uptake,[2]; 1 mM,40%
same,SGLT1 mediated AMG uptake at low intracellular glucose,"[2]; 5 mM QEP in PBS without glucose, data not shown",did not decrease
same,down-regulation of hSGLT1 mediated AMG uptake,[2]; 15 mM,75%
same,decrease of phlorizin inhibited uptake of 10 μM [14C]AMG into everted jejunum,[3],about 30%
same,"effect on SGLT1 mediated AMG uptake, first series of experiments",[4],no effect
same,plasma D-glucose 15 min after glucose gavage,[5],significantly reduced
same,uptake of 5 μM [3H]uridine expressed by hCNT3,[6],not able to inhibit
same,affinity at high intracellular glucose higher than affinity of QSP at low intracellular glucose,[7],about 1000 times
same,degree of down-regulation of hSGLT1,"[7]; 5 pM, intracellular AMG ~0.25 mM",~45%
same,inhibition of SGLT1 mediated transport,"[7]; 50 nM tripeptide, no AMG injected",inhibition
same,increase of affinity (decrease of IC50) for down-regulation of hSGLT1 at high versus low intracellular AMG,[7]; intracellular AMG ~250 μM versus low,more than 15000 fold
same,down-regulation of hSGLT1 when putrescine was added,[7],blunted
same,inhibition of SGLT1 expression,[7]; with injection of AMG (intracellular AMG ~0.25 mM),about 50%
same,down-regulation / inhibition of hSGLT1-mediated AMG uptake,[7]; [11],about 40%
same,IC50,"[7]; without injection of AMG (intracellular AMG <10 μM), read-out: IC50 for down-regulation of hSGLT1-mediated AMG uptake",7.9 nM
same,uptake of 5 μM [3H]uridine expressed by hCNT1,[8],not able to inhibit
same,insulin sensitivity,"NZO mice, 5 mM QEP in drinking water",increased
same,SGLT1-mediated AMG transport into enterocytes and glucose absorption during an OGTT,"mouse, in vivo",not decreased
same,decrease of basal concentration of insulin in the serum,"mouse, in vivo",50%
same,increase and decrease of serum glucose after gavage with glucose,"mouse, in vivo",no effect
same,increase of serum insulin after gavage with glucose,"mouse, in vivo",decreased
"hRS1-Reg: regulatory domain of RS1 from human comprising amino acids 16-98 of hRS1 (SEQ ID No. 6) (protein, listed as Homo sapiens) SSGQSPDVGNPMSLARSVSASVCPIKPSDSDRIEPKAVKALKASAEFQLNSEKKEHLSLQDLSDHASSADHAPTDQSPAMPMQ",ODC activity when hRS1-Reg was coexpressed,[9],decreased
same,uptake of 5 μM [3H]uridine expressed by hCNT3,[6],decreased
same,down-regulation of hSGLT1 by hRS1-Reg together with DFMO,[7]; DFMO intracellular concentration 3 mM,not additive
same,affinity for down-regulation of hSGLT1 when CK2 is blocked by inhibitor KN93,"[7]; co-injected KN93, no AMG injected",largely increased
same,effect of intracellular AMG on the affinity for down-regulation of hSGLT1 after inhibition of CK2,"[7]; co-injected KN93, with AMG",drastically decreased
same,down-regulation of hSGLT1 when putrescine was added,[7],blunted
same,down-regulation / inhibition of hSGLT1-mediated AMG uptake,[7]; [11],about 50%
same,effect of 250 μM intracellular AMG on affinity for down-regulation of hCNT1,[8]; intracellular AMG 250 μM,not altered
same,uptake of 5 μM [3H]uridine expressed by hCNT1,[8],decreased
same,down-regulation of hCNT1,[8]; without injection of AMG,about 50%
same,IC50,"[8]; without injection of AMG, read-out: IC50 for down-regulation of hCNT1-mediated uridine uptake",126 ± 6 nM
same,binding to ODC,[10],binds to ODC
